According to PMC12656327 (Pharmaceutics, 2025):
Values joined by “and” are separate entries in the source; they are usually repeats but may differ in a detail not shown here. Equal values may be shown once. Read-outs that look alike come from different tables or passages of the source.

Assays:
AB1 cells [1] = experiment: NO release in vitro in AB1 cells (Griess reagent); assay type: cell-based, mouse; settings: 25 μM, 24 h, relative to untreated cells
[2] = tested on: JU77 (human malignant mesothelioma) cells; experiment: cells; settings: 72 h, read-out: IC50 JU77
[3] = NO release, Griess assay (phosphate buffer pH 7.4 with L-cysteine); assay type: physicochemical; settings: for NO Released (%) 1 h: 1 h incubation, expressed as % NO2− (μmol/μmol), Griess assay, physiological conditions, furoxan 100 µM; for NO Released (%) 24 h: 24 h incubation; for NO Released (%) 24 h / NO Released (%) 48 h: % NO2− (μmol/μmol); for NO Released (%) 48 h: 48 h incubation; for NO-donor ranking (in words): among all tested compounds
[4] = tested on: AB1 (mouse malignant mesothelioma) cells; experiment: cells; settings: AB1, 72 h, read-out: IC50 AB1
[5] = tested on: MRC-5 (human embryonic lung fibroblast) cells; experiment: MTT cytotoxicity, MRC-5 cells, 72 h; assay type: cell-based; settings: MRC5, 72 h exposure
[6] = tested on: JU77 (human malignant mesothelioma) cells; settings: for SF JU77 (selectivity factor): ratio of the IC50 value in MRC-5 to that in JU77
AB1 and JU77 cell lines [7] = experiment: cells; settings: MPM, 72 h, read-out: IC50 (cytotoxicity) in both MPM cell lines
[8] = tested on: AB1 (mouse malignant mesothelioma) cells
AB1 cells [9] = experiment: JC-1 assay of mitochondrial membrane potential; assay type: cell-based, mouse; settings: for mitochondrial membrane depolarization (in words): 25 µM; for JC-1 Aggregates / JC-1 Monomers: representative dot plot
AB1 and JU77 cell lines [10] = tested on: AB1 and JU77 cell lines
[11] = Stability in DMSO-d6 by 1H NMR spectroscopy; assay type: physicochemical; settings: DMSO-d6, 1H NMR spectra after 1, 20, 48 and 120 h
From the text: For the synthesis of the target bis(1,2,4-oxadiazolyl)furoxans, we employed a synthetic approach based on the reaction of readily available furoxanylbis(amidoxime) 1c with in situ activated carboxylic acids, except for compound 2a, which was synthesized using orthoformate in the presence of boron trifluoride etherate. Specifically, activation of the corresponding carboxylic acid with 1,1′-carbonyldiimidazole, followed by the addition of bis(amidoxime) 1c and 1,4-diazabicyclo [2.2.2]octane (DABCO) as a base to promote the heterocyclization step, afforded the desired heterocyclic assemblies 2b–l (Scheme 1, Figures S1–S24). […] The stability of the synthesized heterocyclic compounds was further examined in DMSO-d6 via ^1H NMR spectroscopy. The representative compound 2j was completely stable in solution for at least 120 h. The corresponding set of ^1H NMR spectra recorded for 2j after 1, 20, 48, and 120 h is provided in the (supporting information (SI) Figure S25).
Figure S25. Stability of the representative compound 2j for 1 h, 20 h, 48 h and 120 h in DMSO -[d6] according to 1H NMR spectroscopy.
(1 picture or pasted object on this page, not shown here)

AB1 cells [12] = experiment: Annexin V/PI assay, flow cytometry; assay type: cell-based, mouse; settings: 25 µM, 24 h
[13] = design: method as in PMID 40006597; settings: % NO2− (μmol/μmol), cited from earlier work; for NO Released (%) 1 h: 1 h incubation; for NO Released (%) 24 h: 24 h incubation; for NO Released (%) 48 h: 48 h incubation
[14] = tested on: MRC-5 (human embryonic lung fibroblast) cells; design: method as in PMID 40006597; settings: MTT, 72 h exposure; cited from earlier work
[15] = tested on: AB1 (mouse malignant mesothelioma) cells; design: method as in PMID 40006597; settings: MTT, 72 h exposure; cited from earlier work
[16] = tested on: JU77 (human malignant mesothelioma) cells; design: method as in PMID 40006597; settings: MTT, 72 h exposure; cited from earlier work
[17] = positive control, 20 μM, 30 min

IC50 [2] [µM] | IC50 [4] [µM] | Compound | intracellular NO release (in words) (AB1 cells [1]) | NO Released (%) 1 h [3] [%] | NO Released (%) 24 h [3] [%] | NO Released (%) 48 h [3] [%] | IC50 [5] [µM] | SF JU77 (selectivity factor) [6] | further results
10.5 ± 0.5 | 33.9 ± 3.4 | [O-][n+]1onc(-c2noc(-c3ccccc3)n2)c1-c1noc(-c2ccccc2)n1 [2e] | minimal NO release | 51 ± 10 | 61 ± 12 | 64 ± 2 | 17.7 ± 3.8 | 1.6 | cytotoxic effects in the AB1 cell line (in words) [8]: no cytotoxic effects
14.1 ± 4.1 | 8.5 ± 2.1 | [O-][n+]1onc(-c2noc(-c3ccncc3)n2)c1-c1noc(-c2ccncc2)n1 [2f] | highest levels of intracellular NO and high | 71 ± 15 | 94 ± 15 | 103 ± 14 | 29.9 ± 1.6 | 2.1 | increase of cytotoxicity in AB1 cells relative to 2a [8]: 1.4 fold; IC50 (AB1 and JU77 cell lines [7]): 3 to 14 µM; mitochondrial membrane depolarization (in words) (AB1 cells [9]; 24 h): markedly higher and relatively comparable levels of depolarization; JC-1 Aggregates (AB1 cells [9]; 25 μM, 24 h): 87.6%; JC-1 Monomers (AB1 cells [9]; 25 μM, 24 h): 12.4%; decrease of cytotoxicity in JU77 cells relative to 2a [6]: 1.6 fold; NO-donor ranking (in words) [3]: most effective NO donors; total amount of released NO ([3]; with longer incubation periods): exceeded 100%
16 ± 3.9 | > 25 | Cc1ccc(-c2nc(-c3no[n+]([O-])c3-c3noc(-c4ccc(C)cc4)n3)no2)cc1 [2h] | minimal NO release | 37 ± 5 | 52 ± 1 | 56 ± 1 | > 25 | >1.6 | cytotoxicity (in words) (AB1 and JU77 cell lines [10]): lacked cytotoxic effects; cytotoxic effects in the AB1 cell line (in words) [8]: no cytotoxic effects
> 25 | > 25 | COc1ccc(-c2nc(-c3no[n+]([O-])c3-c3noc(-c4ccc(OC)cc4)n3)no2)cc1 [2i] | minimal NO release | 75 ± 1 | 78 ± 5 | 89 ± 3 | > 25 |  | cytotoxicity (in words) (AB1 and JU77 cell lines [10]): lacked cytotoxic effects; cytotoxic effects in the AB1 cell line (in words) [8]: no cytotoxic effects; NO-donor ranking (in words) [3]: most effective NO donors
19.7 ± 2.1 | 21.7 ± 4.5 | COc1ccc(-c2nc(-c3no[n+]([O-])c3-c3noc(-c4ccc(OC)c(OC)c4)n3)no2)cc1OC [2j] |  | 35 ± 2 | 37 ± 3 | 39 ± 5 | 25.7 ± 8.7 | 1.3 | time completely stable in solution [11]: at least 120 h
 |  | NC(=O)c1c(CO)no[n+]1[O-] [CAS-1609, 3-carbamoyl-4-(hydroxymethyl)furoxan] |  |  |  |  |  |  | NO Released (%) 1 h [13]: 27% and 27 ± 3%; NO Released (%) 24 h [13]: 68 ± 6%; NO Released (%) 48 h [13]: 73 ± 6%
 |  | N#CC(C#N)=NNc1cccc(Cl)c1 [CCCP, carbonyl cyanide 3-chlorophenylhydrazone, reference compound] |  |  |  |  |  |  | JC-1 Aggregates (AB1 cells [9]; [17]): 30.1%; JC-1 Monomers (AB1 cells [9]; [17]): 69.9%
 |  | CCOc1no[n+]([O-])c1S(=O)(=O)c1ccccc1 [CHF-2363, 4-ethoxy-3-phenylsulfonylfuroxan] |  |  |  |  |  |  | NO Released (%) 1 h [13]: 26% and 26 ± 10%; NO Released (%) 24 h [13]: 71 ± 4%; NO Released (%) 48 h [13]: 77 ± 9%
 |  | N.N.[Cl][Pt][Cl] [Cisplatin, cisplatin] |  |  |  |  |  |  | IC50 [14]: 3.1 ± 1.2 µM; IC50 [15]: 5.8 ± 1 µM; IC50 [16]: 4.2 ± 0.5 µM

Compound | IC50 [2] [µM] | IC50 [4] [µM] | intracellular NO release (in words) (AB1 cells [1]) | NO Released (%) 1 h [3] [%] | NO Released (%) 24 h [3] [%] | NO Released (%) 48 h [3] [%] | IC50 [5] [µM] | SF JU77 (selectivity factor) [6] | further results
O=[N+]([O-])c1ccc(-c2nc(-c3no[n+]([O-])c3-c3noc(-c4ccc([N+](=O)[O-])cc4)n3)no2)cc1 [2b] | > 25 | > 25 | minimal NO release | 38 ± 3 | 46 ± 1 | 48 ± 2 | > 25 |  | 
O=[N+]([O-])c1cccc(-c2nc(-c3no[n+]([O-])c3-c3noc(-c4cccc([N+](=O)[O-])c4)n3)no2)c1 [2c] | 7.3 ± 1 | 19.9 ± 4.3 |  | 37 ± 1 | 49 ± 2 | 63 ± 2 | 27.9 ± 4.6 | 3.8 | 
O=[N+]([O-])c1ccccc1-c1nc(-c2no[n+]([O-])c2-c2noc(-c3ccccc3[N+](=O)[O-])n2)no1 [2d] | 3 ± 0.4 | 11.2 ± 2 | highest levels of intracellular NO | 54 ± 14 | 69 ± 14 | 72 ± 13 | 16.8 ± 5.7 | 5.7 | IC50 (AB1 and JU77 cell lines [7]): 3 to 14 µM
[O-][n+]1onc(-c2noc(-c3ccccc3Cl)n2)c1-c1noc(-c2ccccc2Cl)n1 [2k] | 4.9 ± 1.2 | 15.5 ± 3 | low | 37 ± 5 | 41 ± 8 | 43 ± 7 | 7.8 ± 2.3 |  | mitochondrial membrane depolarization (in words) (AB1 cells [9]; 24 h): least mitochondrial damage; JC-1 Aggregates (AB1 cells [9]; 25 μM, 24 h): 96.3%; JC-1 Monomers (AB1 cells [9]; 25 μM, 24 h): 3.7%; induction of apoptosis/necrosis (in words) (AB1 cells [12]): did not induce significant cancer cell death
